# Tested on: MCF7 cells
# Assay: Label-free semi-quantitative proteomics
# Format: cell-based, Human
# Settings: 10 µM, 48 hours vs vehicle
# Method: HPLC gradient grade acetonitrile was obtained from Fisher Scientific. Briefly, 2 × 10^6 MCF7 cells were seeded in 15 cm plates until cells were attached. […] As control, vehicle-treated cells were processed in parallel. After 48 hours of treatment, cells were lysed in RIPA buffer (R0278, Sigma) and kept at 4° C for 20 minutes with rotation. Lysates were cleared by centrifugation for 10 minutes at 10,000 × g and supernatants were collected and kept frozen at −80° C. Lysate samples were thawed to room temperature and their concentrations equalised to 1 µg/µL (50 µL volume) with RIPA buffer, and further processed for trypsin digestion by sequential reduction of disulphide bonds with TCEP and alkylation with MMTS. Briefly, 1 µL benzonase (Novagen) was added to the 50 µL aliquot and placed on ice for 15 minutes. The sample was then taken to dryness using a SpeedVac, and resuspended in 22.5 µL trypsin reaction buffer (40 mM ammonium bicarbonate and 9% acetonitrile). One µL of 50 mM TCEP solution was added to each sample, mixed briefly and placed on a heater block at 60° C for 60 minutes. After cooling to room temperature, 0.5 µL of 200 mM MMTS solution was added to each sample and allowed to react for 15 minutes. Trypsin was added in two waves to ensure efficient digestion of the sample. Firstly, 20 µg of sequencing grade trypsin was resuspended in 1800 µL of trypsin reaction buffer; 225 µL of this solution were added to each sample for digestion, and the reactions were left at 37° C overnight with shaking (600 rpm). The following morning, a further aliquot of trypsin was added. Two ml of trypsin reaction buffer was added to […] of sequencing grade trypsin; 250 µL of this solution were added to each of the digest samples from overnight, and the reactions were left at 37° C for 4 hours with shaking (600 rpm). […] The digested solution was diluted in 7.5 mL of acetonitrile containing 0.3% formic acid. PolyhydroxyethylA SPE 12 µm, 300A, 300mg cartridges (obtained from PolyLC) were used for the HILIC procedure. Prior to use, cartridges required an overnight soak in 50 mM formic acid followed by rinsing with water the following day. […] The diluted samples were loaded onto the cartridges and washed with a further 10 mL Buffer A. Finally, peptides were eluted in 1 mL Buffer C (9 parts Buffer B plus 1 part Buffer A) and the samples dried on a Speedvac to remove organic solvent prior to LC-MS/MS analysis. Lyophilised digests were resuspended in 50 µL of 0.1% TFA to give an approximate concentration of 1 µg/µL. One µL injection volumes were used throughout resulting in an on-column peptide loading of approximately 1 µg per injection. Analysis was performed in quintuplicate for each sample. All LC-MS/MS analyses were performed on an LTQ Orbitrap XL mass spectrometer coupled to an Ultimate 3000 RSLCnano system (Thermo Scientific). One µL injection volumes were used throughout and samples loaded directly onto the analytical column, PepMap RSLC C18, 2 µm × 75 µm id × 50 cm (Thermo Scientific). The composition (v/v) of LC buffers were as follows; […] Peptides were loaded directly onto the column at a flow rate of 400 nl/min with an initial mobile phase composition of 1% B. […] The column was then allowed to re-equilibrate to 1% B for a total analysis time of 74 minutes. The mass spectrometer was instructed to perform data dependent acquisition on the top six precursor ions, which were measured in the Orbitrap FTMS detector over the mass range 370–1200 m/z, at a nominal resolution of 60,000. […] Gas-phase fractionation was performed on the five replicate injections such that MS/MS data was collected for precursor ion range 370–494 m/z Injection 1, 494–595 m/z Injection 2, 595–685 m/z Injection 3, 685–817 m/z Injection 4 and 817–1200 m/z Injection 5. Xcalibur raw data files acquired on the LTQ-Orbitrap XL were directly imported into Progenesis LCMS software (Waters Corp) for peak detection and alignment. Data were analysed using the Mascot search engine. […]
smiles,measurement,setting,value
"COc1cc(-n2c(=S)[nH]c3ccccc3c2=O)c(Cl)cc1Cl [mDIVI1, 3-(2,4-Dichloro-5-methoxyphenyl) 2,3-dihydro 2-thioxo-4(1H) quinazolinone]",BMP7 expression change (proteomics),,-47.17
same,CELSR2 expression change (proteomics),,−1.6
same,EPCAM expression change (proteomics),,−1.58
same,EphA2 expression change (proteomics),,-1.74
same,F11 receptor expression change (proteomics),,−1.70
same,LAMP1 upregulation (proteomics),,2.83
same,STAT3 expression change (proteomics),,-1.83
same,ZO-1 expression change (proteomics),,−1.62
same,collagen type IV upregulation (proteomics),,1.9 fold
same,desmoplakin expression change (proteomics),,−4.58
same,junction plakoglobin expression change (proteomics),,−1.65
same,keratin 8 expression change (proteomics),,−5.24
same,keratin 18 expression change (proteomics),,−12.21
same,Hexokinase 1 (HK1) change in expression,Glycolysis,↓Infinite
